Data on 6 molecules can be found in patent publication US20260285816A1, “Piperazinyl-Modified Quinazolinyl-Aryl Urea Derivative, And Preparation Method And Use Thereof” (Guangxi Normal University, priority 2025, published 2026).

One may read the IC50 as the concentration needed to halve the response being measured.

What all share (assay type): cell-based, human
Experiment [1] has as its system Hep G2 cells. Put plainly: CCK-8 anti-proliferative assay, Hep G2. To be noted: Homo sapiens, HepG2; Table 8; co-incubated 48 h; read-out: Anti-proliferative activity (IC50 ± standard deviation) Hep G2. In outline: (§1)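 Cells seeded at 5,000/well were grown at 37° C. under 5% CO2 to 70% confluency, then exposed in triplicate to 1–30 μM compound (1, 2, 4, 6, 8, 12, 16, 24, 30 μM) for designated durations. CCK-8 was added for 1–4 h, OD read at 450 nm, and IC50 derived from inhibition versus control.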
In general terms: Formazan colour is commonly taken as a measure of viable cells.

In experiment [2] the test system is MG-63 cells. Put plainly: CCK-8 anti-proliferative assay, MG-63. To be noted: Homo sapiens, MG-63; Table 7; co-incubated 48 h; read-out: Anti-proliferative activity (IC50 ± standard deviation) MG-63. The text has this: (§2) The obtained quinazolinyl-aryl urea derivatives were screened for compounds with optimal activity using the following method. All cell lines employed in this experiment were of human origin, including: bladder cancer cells: J82, UM-UC-3, T24, 5637, pancreatic cancer cells: BxPC-3, PANC-1, osteosarcoma cells: 143B, MG-63, cervical cancer cells: HeLa, breast cancer cells: MCF-7, NSCLC cells: A549, hepatoblastoma cells: Hep G2, and ovarian cancer cells: SK-OV-3, as well as normal cell lines: immortalized ureteral epithelial cells (SV-HUC-1), embryonic lung fibroblasts (WI-38).
(§3) Experimental Procedure for Anti-Proliferative Activity Evaluation: The CCK-8 assay was employed. Cells in logarithmic growth phase were harvested, adjusted to appropriate density, and uniformly seeded into 96-well plates using a multichannel pipette (180 μL cell suspension containing complete medium per well, 5,000 cells/well). Blank control wells (containing basal medium, CCK-8 solution, and DMSO only) were set. Cells were incubated at 37° C. under 5% CO2. After 70% confluency was reached, test compounds (target compounds/positive controls) were added at final concentrations of 1, 2, 4, 6, 8, 12, 16, 24, and 30 μM (3 repeated wells per concentration). Compounds were pre-dissolved in DMSO, sterilized, and diluted with medium before adding 20 μL/well. After co-incubation for designated durations, 10 μL CCK-8 solution was added per well followed by 1-4 h incubation (different cells have different incubation times). The reaction was terminated, and OD (optical density) values at 450 nm were measured using a microplate reader. Inhibition rates were calculated as: (ODcontrol−ODtreatment)/ODcontrol×100%. Median inhibitory concentrations (IC50 values) were derived using Origin v8.0 software.

The test system of experiment [3] is A549 cells. Kind of experiment: CCK-8 anti-proliferative assay, A549. To be noted: Homo sapiens, A549; Table 8; co-incubated 48 h; read-out: Anti-proliferative activity (IC50 ± standard deviation) A549. The essentials: (§4)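 Cells seeded at 5,000/well, grown at 37° C, 5% CO2 to 70% confluence, then treated in triplicate with 1-30 μM compound (nine concentrations) for designated times.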

For experiment [4], the system named is immortalized ureteral epithelial cells (SV-HUC-1). Kind of experiment: CCK-8 anti-proliferative assay, normal cells SV-HUC-1. To be noted: Homo sapiens, SV-HUC1; Table 9; normal cells; co-incubated 48 h; read-out: Anti-proliferative activity (IC50 ± standard deviation) SV-HUC-1. Here is the method: (§5) The obtained quinazolinyl-aryl urea derivatives were screened for compounds with optimal activity using the following method.
as §3, with “The reaction was terminated, and OD (optical density) values at 450 nm were measured using a microplate reader.” left out

Experiment [5] has as its system embryonic lung fibroblasts (WI-38). Kind of experiment: CCK-8 anti-proliferative assay, normal cells WI-38. To be noted: Homo sapiens, WI-38, Table 9, co-incubated 48 h, read-out: Anti-proliferative activity (IC50 ± standard deviation) WI-38.
Excerpt: as §2, §3

The test system of experiment [6] is PANC-1 cells. Kind of experiment: CCK-8 anti-proliferative assay, PANC-1. To be noted: Homo sapiens, PANC-1; Table 7; co-incubated 48 h; read-out: Anti-proliferative activity (IC50 ± standard deviation) PANC-1. The essentials:
as §1

Experiment [7] has as its system J82 cells. Kind of experiment: CCK-8 anti-proliferative assay, J82. To be noted: Homo sapiens, J82; Table 6; co-incubated 48 h; read-out: Anti-proliferative activity (IC50 ± standard deviation) J82. How it is done: as §5
as §3, with “The reaction was terminated, and OD (optical density) values at 450 nm were measured using a microplate reader.” left out

For experiment [8], the system named is HeLa cells. Kind of experiment: CCK-8 anti-proliferative assay, HeLa. To be noted: Homo sapiens, HeLa; Table 8; co-incubated 48 h; read-out: Anti-proliferative activity (IC50 ± standard deviation) HeLa. Here is the method: as §5
as §3, with “The reaction was terminated, and OD (optical density) values at 450 nm were measured using a microplate reader.” left out

Experiment [9] has as its system 5637 cells. Kind of experiment: CCK-8 anti-proliferative assay, 5637. To be noted: Homo sapiens; Table 6; co-incubated 48 h; read-out: Anti-proliferative activity (IC50 ± standard deviation) 5637. The essentials:
as §4

Experiment [10] relates to T24 cells. Put plainly: CCK-8 anti-proliferative assay, T24. To be noted: Homo sapiens, T-24; Table 6; co-incubated 48 h; read-out: Anti-proliferative activity (IC50 ± standard deviation) T24. The essentials:
as §1

Experiment [11] concerns 143B cells. Put plainly: CCK-8 anti-proliferative assay, 143B. To be noted: Homo sapiens, 143B; Table 7; co-incubated 48 h; read-out: Anti-proliferative activity (IC50 ± standard deviation) 143B.
Excerpt: as §2, §3

In experiment [12] the test system is BxPC-3 cells. Put plainly: CCK-8 anti-proliferative assay, BxPC-3. To be noted: Homo sapiens, BXPC-3; Table 7; co-incubated 48 h; read-out: Anti-proliferative activity (IC50 ± standard deviation) BxPC-3. The essentials: as §1
For experiment [13], the system named is UM-UC-3 cells. Kind of experiment: CCK-8 anti-proliferative assay, UM-UC-3. To be noted: Homo sapiens, UMUC3; Table 6; co-incubated 48 h; read-out: Anti-proliferative activity (IC50 ± standard deviation) UM-UC-3. Here is the method: as §5
as §3, with “The reaction was terminated, and OD (optical density) values at 450 nm were measured using a microplate reader.” left out

The subject of experiment [14] is SK-OV-3 cells. Put plainly: CCK-8 anti-proliferative assay, SK-OV-3. To be noted: Homo sapiens, SK-OV-3; Table 9; co-incubated 48 h; read-out: Anti-proliferative activity (IC50 ± standard deviation) SK-OV-3. Here is the method:
as §5
as §3, with “The reaction was terminated, and OD (optical density) values at 450 nm were measured using a microplate reader.” left out

In experiment [15] the test system is MCF-7 cells. Kind of experiment: CCK-8 anti-proliferative assay, MCF-7. To be noted: Homo sapiens, MCF7; Table 8; co-incubated 48 h; read-out: Anti-proliferative activity (IC50 ± standard deviation) MCF-7. In outline: as §4

As to `CCc1ccccc1NC(=O)Nc1cccc(CNc2ncnc3cc(OC)c(OCCCCCCN4CCN(CCN5CCOCC5)CC4)cc23)c1` [Compound 8-1g, N-(3-(((7-methoxy-6-((6-(4-(2-morpholinoethyl)piperazin-1-yl)hexyl)oxy)quinazolin-4-yl)amino)methyl)phenyl)-N′-(2-ethylphenyl)urea], the IC50 is 12.7 ± 0.74 µM in experiment [1]; 10.9 ± 0.93 µM in [2]; 26.4 ± 2.59 µM in [3]; above 30 µM in experiment [4]; above 30 µM in experiment [5]; 13.1 ± 0.78 µM in experiment [6]. Also, the half-inhibitory concentration (IC50) in [7] is 19.7 ± 0.98 µM; in [8] it was 23 ± 0.99 µM; in experiment [9], 22.5 ± 0.79 µM; in [10], 24.8 ± 0.62 µM; in experiment [11] it was 19.3 ± 0.74 µM; in experiment [12], 10.8 ± 0.52 µM. Also, the IC50 is 26 ± 1.79 µM in experiment [13], 6.38 ± 0.51 µM in experiment [14] and 20.3 ± 1.88 µM in [15].

`CCc1cccc(CC)c1NC(=O)Nc1cccc(CNc2ncnc3cc(OC)c(OCCCCCCN4CCN(CCN5CCOCC5)CC4)cc23)c1` [Compound 8-1h, N-(3-(((7-methoxy-6-((6-(4-(2-morpholinoethyl)piperazin-1-yl)hexyl)oxy)quinazolin-4-yl)amino)methyl)phenyl)-N′-(2,6-diethylphenyl)urea]: the IC50 in experiment [1] is 4.67 ± 0.38 µM; in experiment [2] it was 4.92 ± 0.46 µM; in [3], 12.3 ± 0.84 µM; in experiment [4] it was 17.8 ± 1.59 µM; in experiment [5], 23.2 ± 0.76 µM; in experiment [6], 9.63 ± 0.92 µM. The half-maximal inhibitory concentration (IC50) is 5.64 ± 0.39 µM in [7]; 8.03 ± 0.62 µM in [8]; 5.41 ± 0.36 µM in [9]; 6.89 ± 0.48 µM in experiment [10]; 4.46 ± 0.24 µM in experiment [11]; 7.61 ± 0.76 µM in [12]. Moreover, the IC50 in experiment [13] turned out to be 8.74 ± 0.52 µM; in experiment [14], 6.19 ± 0.44 µM; in experiment [15], 8.49 ± 0.88 µM.

Take `COc1cc2ncnc(NCc3cccc(NC(=O)Nc4ccc(C(C)C)cc4)c3)c2cc1OCCCCCCN1CCN(CCN2CCOCC2)CC1` [Compound 8-1i, N-(3-(((7-methoxy-6-((6-(4-(2-morpholinoethyl)piperazin-1-yl)hexyl)oxy)quinazolin-4-yl)amino)methyl)phenyl)-N′-(4-isopropylphenyl)urea]: the half-inhibitory concentration (IC50) in experiment [1] stood at 10.6 ± 0.89 µM; in [2], 11.1 ± 0.95 µM; in [3], 16 ± 0.64 µM; in experiment [4], 19.3 ± 1.39 µM; in [5] it was 20.3 ± 1.63 µM; in experiment [6], 14.4 ± 0.67 µM. The IC50 in experiment [7] is 22.4 ± 1.82 µM; in experiment [8], 14.1 ± 0.89 µM; in experiment [9] it was 10.3 ± 0.97 µM; in experiment [10], 16.3 ± 0.81 µM; in experiment [11], 9.31 ± 0.97 µM; in [12] it was 13.3 ± 1.05 µM. The IC50 in experiment [13] was 10 ± 0.52 µM; in experiment [14], 7.68 ± 0.55 µM; in experiment [15], 11.5 ± 0.76 µM.

For `COc1cc2ncnc(NCc3cccc(NC(=O)Nc4ccc(F)cc4)c3)c2cc1OCCCCCCN1CCN(CCN2CCOCC2)CC1` [Compound 8-1l, N-(3-(((7-methoxy-6-((6-(4-(2-morpholinoethyl)piperazin-1-yl)hexyl)oxy)quinazolin-4-yl)amino)methyl)phenyl)-N′-(4-fluorophenyl)urea], the half-maximal inhibitory concentration (IC50) is 7.29 ± 0.54 µM in experiment [1]; 7.03 ± 0.48 µM in [2]; 21.4 ± 1.96 µM in experiment [3]; 15.9 ± 0.86 µM in [4]; 22.8 ± 0.94 µM in experiment [5]; above 30 µM in [6]. Also, the IC50 in experiment [7] was 6.85 ± 0.57 µM; in [8], 21.3 ± 1.24 µM; in experiment [9], 15.8 ± 0.95 µM; in [10], 10.4 ± 0.92 µM; in [11], 9.03 ± 0.61 µM; in [12] it was 13 ± 0.97 µM. The IC50 in [13] turned out to be 16.8 ± 0.88 µM; in experiment [14] it was 7.72 ± 0.59 µM; in experiment [15], 15.2 ± 0.93 µM.

Take `COc1cc2ncnc(NCc3cccc(NC(=O)Nc4ccccc4Cl)c3)c2cc1OCCCCCCN1CCN(CCN2CCOCC2)CC1` [Compound 8-1m, N-(3-(((7-methoxy-6-((6-(4-(2-morpholinoethyl)piperazin-1-yl)hexyl)oxy)quinazolin-4-yl)amino)methyl)phenyl)-N′-(2-chlorophenyl)urea]: the IC50 in [1] was 7.83 ± 0.66 µM; in [2], 5.69 ± 0.65 µM; in experiment [3] it was 15 ± 0.93 µM; in experiment [4] it was 12 ± 0.57 µM; in experiment [5], 14 ± 0.78 µM; in experiment [6], 23.2 ± 2.03 µM. For the same molecule, the IC50 in experiment [7] was determined as 7.21 ± 0.66 µM; in experiment [8], 13.8 ± 0.77 µM; in experiment [9] it was 6.06 ± 0.58 µM; in experiment [10], 8.82 ± 0.49 µM; in experiment [11] it was 5.62 ± 0.51 µM; in experiment [12], 7.79 ± 0.44 µM. Also, the IC50 came to 11.1 ± 0.74 µM in experiment [13], 12.8 ± 0.42 µM in [14] and 14.8 ± 0.86 µM in [15].

As for `COc1cc2ncnc(NCc3cccc(NC(=O)Nc4ccc(Cl)c(Cl)c4)c3)c2cc1OCCCCCCN1CCN(CCN2CCOCC2)CC1` [Compound 8-1o, N-(3-(((7-methoxy-6-((6-(4-(2-morpholinoethyl)piperazin-1-yl)hexyl)oxy)quinazolin-4-yl)amino)methyl)phenyl)-N′-(3,4-dichlorophenyl)urea], the IC50 in experiment [1] was 6.83 ± 0.52 µM; in [2], 5.89 ± 0.47 µM; in experiment [3], 11.8 ± 0.63 µM; in experiment [4], 10.7 ± 0.51 µM; in [5], 9.93 ± 0.53 µM; in [6], above 30 µM. The half-maximal inhibitory concentration (IC50) in [7] is 6.88 ± 0.49 µM; in experiment [8], 12.4 ± 0.89 µM; in [9] it was 5.34 ± 0.39 µM; in experiment [10], 7.31 ± 0.55 µM; in experiment [11], 5.99 ± 0.43 µM; in experiment [12], 7.73 ± 0.82 µM. Besides, the values for the IC50 in experiment [13], in [14] and in experiment [15] were 5.84 ± 0.53 µM, 9.34 ± 0.98 µM and 9.33 ± 0.71 µM, respectively.
